This is an account of results in publication PMC4336573 (Chemistry & biology, 2015).

This assay deals with T1, CBX7ChD (Homo sapiens, UniProt O95931).
T1 sequence (O95931 11-69 limits assumed): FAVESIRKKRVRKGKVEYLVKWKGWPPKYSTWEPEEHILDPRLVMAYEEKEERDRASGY
Type of assay: binding.

Take `O=C(O)C1=CC(=C(c2ccc(O)c(C(=O)O)c2)c2ccc(O)c(C(=O)O)c2)C=CC1=O` [Aurin tricarboxylic acid]: the IC50 was 5.5 µM. This counts as single-digit micromolar.

With `Cc1cc(-c2ccc(/N=N/c3ccc4c(S(=O)(=O)O)cc(S(=O)(=O)O)c(N)c4c3O)c(C)c2)ccc1/N=N/c1ccc2c(S(=O)(=O)O)cc(S(=O)(=O)O)c(N)c2c1O` [Evans blue], the IC50 was 3.9 µM. Regarding `O=C(O)c1cc(O)c2c(c1)[C@H]([C@H]1c3cc(C(=O)O)cc(O)c3C(=O)c3c(O[C@@H]4O[C@H](CO)[C@@H](O)[C@H](O)[C@H]4O)cccc31)c1cccc(O[C@@H]3O[C@H](CO)[C@@H](O)[C@H](O)[C@H]3O)c1C2=O` [Sennoside A], the IC50 amounted to 33.3 µM. This IC50 is about 8.5-fold higher than that of the compound before.

The compound `Cc1cc(-c2ccc(/N=N/c3c(S(=O)(=O)O)cc4cc(S(=O)(=O)O)cc(N)c4c3O)c(C)c2)ccc1/N=N/c1c(S(=O)(=O)O)cc2cc(S(=O)(=O)O)cc(N)c2c1O` [Trypan blue] came in with an IC50 of 7.5 µM.
